Source: ChEMBL document CHEMBL1201862, “PubChem BioAssay data set” (2004)
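Cultured in 96-well plates, cells were exposed to test compound for 48 hours across five concentrations. At the GI50, growth is halved.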 Active and inactive are the calls of the source. Cut-off read from the data, not from the text of the source: active = GI50 up to about 1.1 µM and inactive = higher.

Tests used:
Assay in all cases: NCI-60 cell line screen, 48 h
A498 = test system: A498
ACHN = test system: ACHN
CAKI-1 = test system: CAKI-1
HCT-116 = test system: HCT-116
Hs-578T = test system: Hs-578T
IGROV-1 = test system: IGROV-1
KM12 = test system: KM12
LOX IMVI = test system: LOX IMVI
NCI-H23 = test system: NCI-H23
NCI-H522 = test system: NCI-H522
NCI/ADR-RES = test system: NCI/ADR-RES
OVCAR-3 = test system: OVCAR-3
OVCAR-5 = test system: OVCAR-5
SN12C = test system: SN12C
SNB-19 = test system: SNB-19
TK-10 = test system: TK-10
UACC-257 = test system: UACC-257

Measured: GI50

OCC(O)C1OC2CC1Nc1ccccc1N2 (stereo not drawn)
inactive: A498 8.85 µM | ACHN > 100 µM | CAKI-1 > 100 µM | HCT-116 > 100 µM | Hs-578T > 100 µM | IGROV-1 > 100 µM | KM12 > 100 µM | LOX IMVI > 100 µM | NCI-H23 > 100 µM | NCI-H522 > 100 µM | NCI/ADR-RES > 100 µM | OVCAR-3 > 100 µM | OVCAR-5 > 10 µM | SN12C > 100 µM | SNB-19 > 100 µM | TK-10 > 100 µM | UACC-257 > 100 µM

Cc1ccc(Cc2n[nH]c(=O)n2Nc2ccccc2)cc1
inactive: A498 > 100 µM | ACHN > 100 µM | CAKI-1 > 100 µM | HCT-116 > 100 µM | Hs-578T > 100 µM | IGROV-1 > 100 µM | KM12 > 100 µM | LOX IMVI > 100 µM | NCI-H23 > 100 µM | NCI-H522 > 100 µM | NCI/ADR-RES > 100 µM | OVCAR-3 > 100 µM | OVCAR-5 > 100 µM | SN12C > 100 µM | SNB-19 > 100 µM | TK-10 > 100 µM | UACC-257 > 100 µM

CN(CCNC(=O)c1n[nH]c2c1Cc1ccccc1-2)CCNC(=O)c1n[nH]c2c1Cc1ccccc1-2
inactive: A498 18.6 µM | ACHN 17.1 µM | CAKI-1 16.7 µM | HCT-116 16.2 µM | Hs-578T 25.3 µM | IGROV-1 16.3 µM | KM12 17.3 µM | LOX IMVI 18.9 µM | NCI-H23 17.2 µM | NCI-H522 17.5 µM | NCI/ADR-RES 37.8 µM | OVCAR-3 14.9 µM | OVCAR-5 18.6 µM | SN12C 16.7 µM | SNB-19 16.8 µM | TK-10 19.1 µM | UACC-257 18.8 µM

CC(NC(=O)OCc1ccccc1)NC(=O)C(CC(=O)OC(C)(C)C)NC(=O)OC(C)(C)C (stereo not drawn)
inactive: A498 > 100 µM | ACHN > 100 µM | CAKI-1 > 100 µM | HCT-116 > 100 µM | Hs-578T > 100 µM | IGROV-1 > 100 µM | KM12 > 100 µM | LOX IMVI > 100 µM | NCI-H23 > 100 µM | NCI-H522 > 100 µM | NCI/ADR-RES > 100 µM | OVCAR-3 > 100 µM | OVCAR-5 > 100 µM | SN12C > 100 µM | SNB-19 > 100 µM | TK-10 > 100 µM | UACC-257 > 100 µM
